Laboratory results from publication PMC5424463, “A strategy based on nucleotide specificity leads to a subfamily-selective and cell-active inhibitor of N ^6-methyladenosine demethylase FTO” (Chemical Science, 2014).
Several values for one entry are separate records, joined by “and”; a condition that tells them apart may be missing. Equal values may be shown once.

Experiments:
Type in all cases: biochemical
[1] = target: T1, FTO (Homo sapiens, UniProt Q9C0B1); assay: HPLC-based inhibition assay for FTO, m3T substrate; conditions: HPLC-based demethylase assay, m3T substrate; read-out: IC50 (FTO)
T1 construct: The human full length FTO construct used in this study; made in house; host or cells: E. coli BL21 (DE3) Rosetta T1R
Description: HPLC-based inhibition assays for FTO
The assay was modified from previously reported method.[17] It is performed in triplicate for each inhibitor, in a final reaction volume of 25 µL. Reaction consisted of FTO (1 µM), 2OG (50 µM), (NH4)2Fe(SO4)2·6H2O (50 µM), L-ascorbate (2 mM), 3-methylthymidine (m3T substrate, 10 µM) in 50 mM HEPES buffer, pH 7.5, and inhibitor at various concentrations (final DMSO concentration not more than 1% v/v of assay mix). The reaction was incubated at 4°C for 1 h, before analysis on a HPLC system. The substrate (m3T) and the demethylated product (thymidine) were separated using a Zorbax C18 column (4.6 mm x 250 mm) with a […]
flow rate of 1 mL/min at room temperature.
The percentage inhibition was estimated based on the peak areas of the 3-methylthymidine substrate and the thymidine product. For IC50 determination, eight different concentrations of […]
the variation in percentage demethylation at different inhibitor concentrations, using nonlinear regression, with normalized dose-response fit on GraphPad Prism 6.0™.
HPLC-based assay for FTO was also performed using an m6A-ssRNA as substrate. The assay was modified from previously reported method.[21] All reaction conditions are as described for the inhibition of m3T demethylation above, except that a 15-mer ssRNA with the sequence 5’-CUUGUCA(m6A)CAGCAGA-3’ (Yale University, W.M. Keck Foundation Biotechnology Resource Laboratory) was used as substrate (10 µM). The reaction was analysed on a bio-inert HPLC system. The m6A-ssRNA substrate and the corresponding demethylated product were separated using a Dionex DNAPac PA200 anion-exchange

[2] = target: T2, ALKBH3 (Homo sapiens, UniProt Q96Q83); assay: MALDI-based inhibition assay for ALKBH3; conditions: 8-mer ssDNA substrate
T2 construct: Human ALKBH3 (encompassing residues 1- 286); purchased ProSpec-Tany Technogene Ltd, Israel
T2 sequence (Q96Q83 1-286): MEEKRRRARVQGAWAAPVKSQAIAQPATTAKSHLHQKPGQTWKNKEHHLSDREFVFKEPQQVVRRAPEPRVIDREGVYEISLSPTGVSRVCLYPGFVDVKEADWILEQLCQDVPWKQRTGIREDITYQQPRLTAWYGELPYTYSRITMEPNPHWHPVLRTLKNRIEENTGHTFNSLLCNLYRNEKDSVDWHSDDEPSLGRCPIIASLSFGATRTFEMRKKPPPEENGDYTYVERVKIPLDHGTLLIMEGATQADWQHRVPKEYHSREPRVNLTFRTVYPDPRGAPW
Description: MALDI-based inhibition assays for ALKBH3
An 8-mer m1A-ssDNA substrate with the sequence 5’-CAG(m1A)ATTC-3’ (Yale University, W.M. Keck Foundation Biotechnology Resource Laboratory) was used in this inhibition assay. The assay was performed in triplicate for each inhibitor, in a final reaction volume of 25 µL. Reaction consisted of ALKBH3 (2 µM), 2OG (150 µM), (NH4)2Fe(SO4)2·6H2O (150 µM), L-ascorbate (2 mM), […] (100 µM), in 50 mM HEPES buffer, pH 7.5, and inhibitor at various concentrations (final DMSO concentration not more than 1% v/v of assay mix). The reaction was incubated at room temperature for 30 min, before 1:1 quenching with 20% v/v formic acid. 1 uL of the diluted assay mixture was then mixed with 1 uL of 3-hydroxpicolinic acid (3-HPA, the MALDI-TOF-MS matrix, Sigma-Aldrich) and spotted onto the MALDI-TOF-MS plate before analysis. The 3-HPA matrix was prepared by mixing 9 parts of 50 mg/mL 3-hydroxpicolinic acid in 50% MeCN/Milli-Q H2O with 1 part of 50 mg/mL ammonium citrate in Milli-Q H2O.
The percentage inhibition was estimated based on the relative intensities of the methylated substrate and the demethylated product observed in the mass spectra. […]
Reaction consisted of PHD2 (4 µM), 2OG (150 µM),

[3] = target: T3, ALKBH5 (Homo sapiens, UniProt Q6P6C2); assay: MALDI-based inhibition assay for ALKBH5, m6A-ssDNA substrate; conditions: read-out: IC50 (ALKBH5)
T3 construct: pNIC28-Bsa4 ALKBH5 (encompassing residues 66-292); made in house; host or cells: E. coli BL21 (DE3) Rosetta T1R
Description: MALDI-based inhibition assays for FTO and ALKBH5
The assay was modified from previously reported method.[5] An 8-mer m6A-ssDNA substrate with the sequence 5’-TCA(m6A)CAGC-3’ (Yale University, W.M. Keck Foundation Biotechnology Resource Laboratory) was used in this inhibition assay. The assay was performed in triplicate for each inhibitor, in a final reaction volume of 25 µL. Reaction […]
µM), L-ascorbate (2 mM), m6A-ssDNA substrate (100 µM), in 50 mM HEPES buffer, pH 7.5, and inhibitor at various concentrations (final DMSO concentration not more than 1% v/v of assay mix). The reaction was incubated at room temperature for 30 min, before 1:1 quenching with 20% v/v formic acid. 1 uL of the diluted assay mixture was then mixed with 1 uL of 3-hydroxpicolinic acid (3-HPA, the MALDI-TOF-MS matrix, Sigma-Aldrich) and spotted onto the MALDI-TOF-MS plate before analysis. The 3-HPA matrix was prepared by mixing 9 parts of 50 mg/mL 3-hydroxpicolinic acid in 50% MeCN/Milli-Q H2O with 1 part […]
The percentage inhibition was estimated based on the relative intensities of the methylated substrate and the demethylated product observed in the mass spectra. For IC50 determination, eight different concentrations of […]
the variation in percentage demethylation at different inhibitor concentrations, using nonlinear regression, with normalized dose-response fit on GraphPad Prism 6.0™. […]

T3 sequence (Q6P6C2 66-292): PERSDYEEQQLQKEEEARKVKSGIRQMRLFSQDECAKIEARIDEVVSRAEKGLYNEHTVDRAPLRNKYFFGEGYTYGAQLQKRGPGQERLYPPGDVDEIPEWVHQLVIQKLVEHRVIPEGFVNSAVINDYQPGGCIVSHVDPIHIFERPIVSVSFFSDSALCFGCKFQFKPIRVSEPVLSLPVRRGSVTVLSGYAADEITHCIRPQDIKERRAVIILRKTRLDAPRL
T1 sequence (Q9C0B1 whole entry): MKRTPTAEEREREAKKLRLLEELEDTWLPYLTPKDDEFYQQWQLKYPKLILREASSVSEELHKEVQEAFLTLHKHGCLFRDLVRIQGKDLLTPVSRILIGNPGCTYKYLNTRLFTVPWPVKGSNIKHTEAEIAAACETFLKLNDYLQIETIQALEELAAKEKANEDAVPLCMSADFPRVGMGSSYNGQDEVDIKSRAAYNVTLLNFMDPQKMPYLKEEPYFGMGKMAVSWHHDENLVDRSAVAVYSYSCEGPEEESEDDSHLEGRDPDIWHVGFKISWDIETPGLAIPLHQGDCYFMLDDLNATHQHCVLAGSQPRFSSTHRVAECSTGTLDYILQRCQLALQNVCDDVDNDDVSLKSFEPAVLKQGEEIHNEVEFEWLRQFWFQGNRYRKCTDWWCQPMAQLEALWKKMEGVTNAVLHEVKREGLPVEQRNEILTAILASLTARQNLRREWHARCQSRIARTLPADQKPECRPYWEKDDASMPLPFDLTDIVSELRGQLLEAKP

| Structure (SMILES) | IC50 [1] | IC50 [2] | IC50 [3] |
| --- | --- | --- | --- |
| O=C(O)C=CC(=O)NNC(=O)c1cc(Cc2ccccc2)ccn1 [Compound 22] | 86.8 µM | 53.5 µM | 105 µM |
| O=C(O)/C=C/C(=O)NNC(=O)c1cccnc1 [Compound 21] |  | 115 µM | 168 µM and > 100 µM |
| O=C(O)/C=C/C(=O)NNC(=O)c1ccccn1 [Compound 23] | 109 µM | 168 µM | 157 µM |
| O=C(O)/C=C/C(=O)NNC(=O)c1cnccc1Cc1ccccc1 [Compound 12] |  | 66.2 µM | 108 µM |
